Experimental findings from patent US20160324992A1, “IDENTIFICATION AND TREATMENT OF VULNERABLE PLAQUES” (OTTAWA HEART INSTITUTE RESEARCH CORPORATION, priority 2015, published 2016) are described below.

This series relates to bone-marrow-derived macrophages (BMDMs). It counts as cell-based. On the procedure:
(§1) Bone-marrow derived macrophages. Bone-marrow derived macrophages (BMDMs) were isolated from femurs of adult VVT or Rip3^−/− mice and differentiated into macrophages using DMEM supplemented with 10% FBS and 1% penicillin-streptomycin plus either 20% L929 conditioned media or 20 ng/mL mouse M-CSF for 7-10 days. To polarize macrophages to M1 or M2, BMDMs were incubated on day 7 with 1 μg/mL LPS and 100 ng/mL IFNγ or 10 ng/mL IL-4 respectively for 24 h. Damage Associated Molecular Patterns (DAMPs) were obtained by subjecting BMDMs to 3×30 min freeze-thaw cycle or treatment with 100 ng/mL LPS and 50 μM zVAD.fmk for 24 hours, after which the media was collected and added to naïve cells at indicated ratios.
(§2) Cell viability assays. Cell death was determined by measuring lactate dehydrogenase (LDH) release into the media. Briefly, cells were treated with 100 μg/ml oxLDL in the presence or absence of 25 μM zVAD.fmk or 50 μM necrostatin-1 (Nec-1) for 24 hours and media was collected and centrifuged to pellet cell debris. The amount of LDH in media was measured in a kinetic assay by adding PBS containing 0.02% NADH and 0.03% sodium pyruvate and measuring absorbance at 340 nm for 10 minutes at 1 minute intervals. The slope of the curve provides a measure of cell death, which was expressed as fold change relative to control.
as §1, with “Rip3−/−” for “Rip3^−/−”
as §2, with “ug/ml” for “μg/ml”, “uM” for “μM”

As for `CN1C(=O)C(Cc2c[nH]c3ccccc23)NC1=S` (stereo not shown) [Nec-1, necrostatin-1], the “cell death with compound alone (in words)” value is reported as “did not promote cell death”. Also, the “cell death (LDH release), fold change relative to control” value (BMDMs, 100 μg/mL oxLDL + 50 μM Nec-1, 24 h, oxLDL alone 3.9±0.6-fold, mean±SEM) was 2.3±0.4 fold. Also, the “inhibition of oxLDL+zVAD.fmk-induced cell death (in words)” value (BMDMs, oxLDL + zVAD.fmk + Nec-1, 24 h) is listed as “similarly inhibited”. In addition, the “inhibition of oxLDL-induced cell death (in words)” value (M2-polarized macrophages, oxLDL 24 h) is given as “similarly inhibited”.
